The source made the active and inactive calls. No rule for the calls is given here.

Our source for the carcinogen call and TD50 values is PubChem BioAssay AID1745844 (Carcinogenic Potency Database (CPDB), 2022).

The series concerns rodent lifetime carcinogenesis bioassay, tumor incidence TD50. Description: chronic cancer bioassays in animals – CPDB, compiled studies (AID 1745844).

The term TD50 denotes the 50% point of the dose-response relation for the toxic effect studied. For the compound `C=CCNNCC=C`, the carcinogen call by setting is: (mouse, strain Swiss albino, females, in drinking water, site: liver, lesion: angioma, dosed 83 weeks, study length 83 weeks) “negative (inactive)”; (mouse, strain Swiss albino, females, in drinking water, site: liver, lesion: angiosarcoma, dosed 83 weeks, study length 83 weeks) “negative (inactive)”; (mouse, strain Swiss albino, males, in drinking water, site: liver, lesion: angioma, dosed 82 weeks, study length 82 weeks) “negative (inactive)”. In addition, the TD50 was 409 mg/kg/day (inactive) (mouse, strain Swiss albino, females, in drinking water, site: liver, lesion: hepatoma, dosed 83 weeks, study length 83 weeks); 78.3 mg/kg/day (mouse, strain Swiss albino, females, in drinking water, site: lung, lesion: adenocarcinoma, dosed 83 weeks, study length 83 weeks); 47.9 mg/kg/day (mouse, strain Swiss albino, females, in drinking water, site: lung, lesion: adenoma, dosed 83 weeks, study length 83 weeks); 33.8 mg/kg/day (mouse, strain Swiss albino, females, in drinking water, site: lung, lesion: several types, types named in the paper, dosed 83 weeks, study length 83 weeks); 60 mg/kg/day (mouse, strain Swiss albino, males, in drinking water, site: lung, lesion: adenocarcinoma, dosed 82 weeks, study length 82 weeks); 35.4 mg/kg/day (mouse, strain Swiss albino, males, in drinking water, site: lung, lesion: adenoma, dosed 82 weeks, study length 82 weeks). Further, under “mouse, strain Swiss albino, males, in drinking water, site: lung, lesion: several types, types named in the paper, dosed 82 weeks, study length 82 weeks”, the TD50 was 33.9 mg/kg/day.

With `ClCC1CO1` (stereo not drawn), the TD50 was 28.9 mg/kg/day (mouse, strain Ha/ICR, females, i.p., site: lung, lesion: papillary tumor, dosed 64 weeks, study length 64 weeks); 421 mg/kg/day (rat, strain Sprague-Dawley, males, inhaled, site: nasal cavity, lesion: squamous-cell carcinoma, dosed 54 weeks, study length 136 weeks); 2.55 mg/kg/day (rat, strain Wistar, females, by gavage, site: forestomach, lesion: squamous-cell carcinoma, dosed 104 weeks, study length 104 weeks); 4.83 mg/kg/day (rat, strain Wistar, males, by gavage, site: any site (literature study), lesion: several types, types named in the paper, dosed 104 weeks, study length 104 weeks); 3.53 mg/kg/day (rat, strain Wistar, males, by gavage, site: forestomach, lesion: squamous-cell carcinoma, dosed 104 weeks, study length 104 weeks); 218 mg/kg/day (inactive) (rat, strain Wistar, males, by gavage, site: liver, lesion: one or several types, types not named, dosed 104 weeks, study length 104 weeks). The carcinogen call by setting is: (rat, strain Wistar, females, by gavage, site: liver, lesion: neoplastic nodule, dosed 104 weeks, study length 104 weeks) “negative (inactive)”; (rat, strain Wistar, males, by gavage, site: liver, lesion: hepatocellular carcinoma, dosed 104 weeks, study length 104 weeks) “negative (inactive)”; (rat, strain Wistar, males, by gavage, site: liver, lesion: neoplastic nodule, dosed 104 weeks, study length 104 weeks) “negative (inactive)”.

In the case of `CN(C)N=O`, the TD50 (mouse, strain A, males, in drinking water, site: lung, lesion: alveolar-cell adenoma, dosed 72 weeks, study length 72 weeks) was 0.177 mg/kg/day; the TD50 (mouse, strain BALB/c, females, in drinking water, site: any site (literature study), lesion: several types, types named in the paper, dosed 85 weeks, study length 85 weeks) turned out to be 0.396 mg/kg/day; the TD50 (mouse, strain BALB/c, females, in drinking water, site: lung, lesion: adenoma, dosed 85 weeks, study length 85 weeks) was 0.324 mg/kg/day; the TD50 (mouse, strain C57BL, females, by gavage, site: any site (literature study), lesion: several types, types named in the paper, dosed 50 weeks, study length 72 weeks) was determined as 0.0964 mg/kg/day; the TD50 (mouse, strain C57BL, females, by gavage, site: forebrain, lesion: olfactory neuroepithelioma, dosed 50 weeks, study length 72 weeks) is 0.153 mg/kg/day; the TD50 (mouse, strain C57BL, females, by gavage, site: liver, lesion: benign tumor, dosed 50 weeks, study length 72 weeks) is 0.35 mg/kg/day. In addition, the TD50 is, setting by setting: (mouse, strain C57BL, females, by gavage, site: liver, lesion: malignant tumor, dosed 50 weeks, study length 72 weeks) 0.429 mg/kg/day; (mouse, strain C57BL, males, by gavage, site: any site (literature study), lesion: several types, types named in the paper, dosed 50 weeks, study length 72 weeks) 0.06 mg/kg/day; (mouse, strain C57BL, males, by gavage, site: forebrain, lesion: olfactory neuroepithelioma, dosed 50 weeks, study length 72 weeks) 0.161 mg/kg/day; (mouse, strain C57BL, males, by gavage, site: liver, lesion: benign tumor, dosed 50 weeks, study length 72 weeks) 0.508 mg/kg/day; (mouse, strain C57BL, males, by gavage, site: liver, lesion: malignant tumor, dosed 50 weeks, study length 72 weeks) 0.179 mg/kg/day; (mouse, strain C57BL, males, by gavage, site: lung, lesion: adenoma, dosed 50 weeks, study length 72 weeks) 21.1 mg/kg/day. For the same compound, the TD50 is, setting by setting: (rat, strain Buffalo, males, in feed, site: liver, lesion: hepatocellular carcinoma, dosed 26 weeks, study length 52 weeks) 1.76 mg/kg/day; (rat, strain Colworth (Wistar derived), females, in drinking water, site: liver, lesion: hepatocellular carcinoma, dosed 176 weeks, study length 176 weeks) 0.237 mg/kg/day; (rat, strain Colworth (Wistar derived), females, in drinking water, site: liver, lesion: hepatocellular tumor, dosed 176 weeks, study length 176 weeks) 0.145 mg/kg/day; (rat, strain Colworth (Wistar derived), females, in drinking water, site: liver, lesion: intrahepatic bile duct tumor, benign, dosed 176 weeks, study length 176 weeks) 0.0763 mg/kg/day; (rat, strain Colworth (Wistar derived), females, in drinking water, site: liver, lesion: intrahepatic bile duct tumor, dosed 176 weeks, study length 176 weeks) 0.0752 mg/kg/day; (rat, strain Colworth (Wistar derived), females, in drinking water, site: liver, lesion: mesenchymal hemangio-sarcoma, -pericytoma, or -endothelioma, malignant, dosed 176 weeks, study length 176 weeks) 0.914 mg/kg/day. The TD50 runs as follows: (rat, strain Colworth (Wistar derived), females, in drinking water, site: liver, lesion: neoplasm of liver cell, bile duct, mesenchyme, Kupffer cell, or unknown, dosed 176 weeks, study length 176 weeks) 0.0424 mg/kg/day; (rat, strain Colworth (Wistar derived), males, in drinking water, site: liver, lesion: hepatocellular carcinoma, dosed 176 weeks, study length 176 weeks) 0.218 mg/kg/day; (rat, strain Colworth (Wistar derived), males, in drinking water, site: liver, lesion: hepatocellular tumor, dosed 176 weeks, study length 176 weeks) 0.157 mg/kg/day; (rat, strain Colworth (Wistar derived), males, in drinking water, site: liver, lesion: intrahepatic bile duct tumor, benign, dosed 176 weeks, study length 176 weeks) 0.313 mg/kg/day; (rat, strain Colworth (Wistar derived), males, in drinking water, site: liver, lesion: intrahepatic bile duct tumor, malignant, dosed 176 weeks, study length 176 weeks) 23.6 mg/kg/day; (rat, strain Colworth (Wistar derived), males, in drinking water, site: liver, lesion: intrahepatic bile duct tumor, dosed 176 weeks, study length 176 weeks) 0.308 mg/kg/day. Besides, the TD50 is 0.712 mg/kg/day (rat, strain Colworth (Wistar derived), males, in drinking water, site: liver, lesion: mesenchymal hemangio-sarcoma, -pericytoma, or -endothelioma, malignant, dosed 176 weeks, study length 176 weeks); 0.0867 mg/kg/day (rat, strain Colworth (Wistar derived), males, in drinking water, site: liver, lesion: neoplasm of liver cell, bile duct, mesenchyme, Kupffer cell, or unknown, dosed 176 weeks, study length 176 weeks); 1.64 mg/kg/day (rat, strain Colworth (Wistar derived), males, in drinking water, site: lung, lesion: several types, types named in the paper, dosed 176 weeks, study length 176 weeks); 0.438 mg/kg/day (rat, strain Fischer 344, females, in drinking water, site: liver, lesion: hemangiosarcoma, dosed 30 weeks, study length 110 weeks); 0.135 mg/kg/day (rat, strain Fischer 344, females, in drinking water, site: liver, lesion: hepatocellular carcinoma, dosed 30 weeks, study length 110 weeks); 0.0587 mg/kg/day (rat, strain Fischer 344, females, in drinking water, site: liver, lesion: several types, types named in the paper, dosed 30 weeks, study length 110 weeks). In addition, the TD50 is 0.189 mg/kg/day (rat, strain Fischer 344, males, by gavage, site: kidney, lesion: mesenchymal neoplasm, dosed 30 weeks, study length 65 weeks); 0.822 mg/kg/day (rat, strain Fischer 344, males, by gavage, site: liver, lesion: cholangiocellular tumor, benign, dosed 30 weeks, study length 65 weeks); 0.822 mg/kg/day (rat, strain Fischer 344, males, by gavage, site: liver, lesion: hemangiosarcoma, dosed 30 weeks, study length 65 weeks); 0.372 mg/kg/day (rat, strain Fischer 344, males, by gavage, site: liver, lesion: hepatocellular tumor, benign, dosed 30 weeks, study length 65 weeks); 0.189 mg/kg/day (rat, strain Fischer 344, males, by gavage, site: liver, lesion: several types, types named in the paper, dosed 30 weeks, study length 65 weeks); 0.106 mg/kg/day (rat, strain Fischer 344, males, by gavage, site: lung, lesion: alveolar/bronchiolar adenoma, dosed 30 weeks, study length 65 weeks). In addition, the TD50 reads like this: (rat, strain Fischer 344, males, by gavage, site: lung, lesion: several types, types named in the paper, dosed 30 weeks, study length 65 weeks) 0.0765 mg/kg/day; (rat, strain Fischer 344, males, by gavage, site: lung, lesion: squamous-cell carcinoma, dosed 30 weeks, study length 65 weeks) 0.372 mg/kg/day; (rat, strain MRC Porton (Wistar derived), females, in feed, site: liver, lesion: one or several types, types not named, dosed 52 weeks, study length 120 weeks) 0.443 mg/kg/day; (rat, strain MRC Porton (Wistar derived), females, in feed, site: liver, lesion: one or several types, types not named, dosed 108 weeks, study length 120 weeks) 1.4 mg/kg/day; (rat, strain MRC Porton (Wistar derived), males, in feed, site: liver, lesion: one or several types, types not named, dosed 120 weeks, study length 120 weeks) 1.18 mg/kg/day; (rat, strain Wistar, females, in feed, site: all sites, lesion: leukemia, dosed 96 weeks, study length 96 weeks) 1.46 mg/kg/day. The TD50 is 1.83 mg/kg/day (rat, strain Wistar, females, in feed, site: liver, lesion: hemangioendothelioma, dosed 96 weeks, study length 96 weeks); 4.1 mg/kg/day (rat, strain Wistar, females, in feed, site: liver, lesion: hepatocellular carcinoma, dosed 96 weeks, study length 96 weeks); 0.113 mg/kg/day (rat, strain Wistar, females, in feed, site: liver, lesion: nodular hyperplasia, dosed 96 weeks, study length 96 weeks); 1.95 mg/kg/day (rat, strain Wistar, males, in feed, site: liver, lesion: hemangioendothelioma, dosed 96 weeks, study length 96 weeks); 5.52 mg/kg/day (rat, strain Wistar, males, in feed, site: liver, lesion: hepatocellular carcinoma, dosed 96 weeks, study length 96 weeks); 0.782 mg/kg/day (rat, strain Wistar, males, in feed, site: liver, lesion: nodular hyperplasia, dosed 96 weeks, study length 96 weeks). Also, the TD50 (rat, strain Wistar, males, in feed, site: testis, lesion: Leydig-cell tumor, dosed 54 weeks, study length 69 weeks) is 0.136 mg/kg/day. Besides, the carcinogen call (rat, strain Wistar, males, in feed, site: liver, lesion: carcinoma, dosed 54 weeks, study length 69 weeks) was “negative (inactive)”.

As to `O=CC(O)C(O)C(O)C(O)COC1OC(COC2OC(CO)C(O)C(O)C2O)C(O)C(O)C1O` (stereo not drawn), the TD50 (rat, strain ACI, females, in feed, site: urinary bladder, lesion: one or several types, types not named, dosed 68 weeks, study length 68 weeks) is 1640 mg/kg/day (inactive) and the TD50 (rat, strain ACI, males, in feed, site: urinary bladder, lesion: one or several types, types not named, dosed 68 weeks, study length 68 weeks) is 3190 mg/kg/day (inactive).

Consider `CCN(N)C=O`, for which the TD50 runs as follows: (mouse, strain Swiss albino, females, in drinking water, site: blood vessels, lesion: several types, types named in the paper, dosed 61 weeks, study length 61 weeks) 2.49 mg/kg/day; (mouse, strain Swiss albino, females, in drinking water, site: lung, lesion: several types, types named in the paper, dosed 61 weeks, study length 61 weeks) 2.52 mg/kg/day; (mouse, strain Swiss albino, males, in drinking water, site: blood vessels, lesion: several types, types named in the paper, dosed 60 weeks, study length 60 weeks) 3.55 mg/kg/day; (mouse, strain Swiss albino, males, in drinking water, site: gall bladder, lesion: several types, types named in the paper, dosed 60 weeks, study length 60 weeks) 47.4 mg/kg/day; (mouse, strain Swiss albino, males, in drinking water, site: liver, lesion: several types, types named in the paper, dosed 60 weeks, study length 60 weeks) 17.7 mg/kg/day; (mouse, strain Swiss albino, males, in drinking water, site: lung, lesion: several types, types named in the paper, dosed 60 weeks, study length 60 weeks) 3.19 mg/kg/day. For the setting “mouse, strain Swiss albino, males, in drinking water, site: preputial gland, lesion: several types, types named in the paper, dosed 60 weeks, study length 60 weeks”, the TD50 was 50.8 mg/kg/day.
